Experimental data published in patent publication US8999982B2, “Pharmaceutically active compounds as Axl inhibitors” (Lead Discovery Center GmbH, priority 2010, dated 2015).

Key:
Axl [1] = molecular target: T1, Axl (Homo sapiens (Human), UniProt P30530); assay: Axl binding assay
Experimental: Binding of the tracer to the kinase is detected using an EU-labeled anti-tag antibody. […] Binding of an inhibitor to the kinase competes for binding with the tracer, resulting in a loss of FRET-signal. At first a compound according to formula (I) was diluted in 20 mM Hepes pH 8.0, 1 mM DTT, 10 mM MgCl2 and 0.01% Brij35.

Axl [2] = molecular target: T1, Axl; assay: Cellular Axl phosphorylation assay; format: cell-based; conditions: HEK293 cells transfected with Axl cDNA, 1 hour incubation
Experimental: 3. Cellular Axl Phosphorylation Assay:
HEK293 embryonal kidney fibroblasts were transfected in 96 wells with a plasmid containing Axl cDNA. As transfection reagent Superfect (Qiagen) was used. Transfection of the sole vector backbone served as negative control of Axl expression. After overnight incubation the cellular supernatant was replaced with fresh medium. On the following day the Axl-expressing cells were incubated for 1 hour with a compound according to formula (I) at the suitable concentrations. […] The mesoscale technology was used for quantification.

T1 sequence (P30530 26-894): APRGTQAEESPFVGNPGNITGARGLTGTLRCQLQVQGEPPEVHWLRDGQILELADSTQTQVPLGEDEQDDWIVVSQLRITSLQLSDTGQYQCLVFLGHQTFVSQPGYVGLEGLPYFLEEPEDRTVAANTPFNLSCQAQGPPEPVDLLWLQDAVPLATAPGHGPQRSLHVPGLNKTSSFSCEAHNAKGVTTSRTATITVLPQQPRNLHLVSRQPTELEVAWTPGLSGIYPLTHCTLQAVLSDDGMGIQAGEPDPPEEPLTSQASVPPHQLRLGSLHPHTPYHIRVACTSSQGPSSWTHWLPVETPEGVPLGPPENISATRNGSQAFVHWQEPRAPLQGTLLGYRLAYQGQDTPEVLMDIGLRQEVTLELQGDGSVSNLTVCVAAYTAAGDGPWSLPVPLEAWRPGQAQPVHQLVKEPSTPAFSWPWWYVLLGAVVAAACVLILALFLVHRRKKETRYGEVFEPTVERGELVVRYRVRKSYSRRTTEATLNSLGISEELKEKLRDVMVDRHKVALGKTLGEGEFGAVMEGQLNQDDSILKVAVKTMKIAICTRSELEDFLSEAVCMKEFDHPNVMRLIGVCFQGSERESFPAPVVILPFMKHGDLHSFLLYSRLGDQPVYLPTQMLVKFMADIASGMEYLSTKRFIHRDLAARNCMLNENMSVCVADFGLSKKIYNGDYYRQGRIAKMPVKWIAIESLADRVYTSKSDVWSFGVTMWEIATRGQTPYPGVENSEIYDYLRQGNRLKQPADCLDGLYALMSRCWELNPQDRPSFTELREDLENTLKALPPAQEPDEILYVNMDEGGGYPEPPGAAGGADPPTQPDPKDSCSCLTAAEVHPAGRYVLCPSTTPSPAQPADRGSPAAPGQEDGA

Row | IC50 (Axl [1]) [nM] | IC50 (Axl [2]) [nM] | Compound
1 | < 500 | < 500 | CCOc1cn(-c2ccc(F)cc2C)nc1C(=O)Nc1ccc(Oc2ccnc3cc(OC)c(OC)cc23)c(C)c1 [Example 31, N-[4-[(6,7-dimethoxy-4-quinolyl)oxy]-3-methyl-phenyl]-4-ethoxy-1-(4-fluoro-2-methyl-phenyl)pyrazole-3-carboxamide]
2 | < 500 | < 500 | COc1cc2c(Oc3ccc(NC(=O)c4nc(-c5ccccc5)cs4)nc3)ccnc2cc1OCC1CCNCC1 [Example 101, N-(5-((6-methoxy-7-(piperidin-4-ylmethoxy)quinolin-4-yl)oxy)pyridin-2-yl)-4-phenylthiazole-2-carboxamide]
3 | < 500 | < 500 | CCOc1cn(-c2cccnc2)nc1C(=O)Nc1ccc(Oc2ccnc3cc(OC)c(OC)cc23)c(F)c1 [Example 105, N-(4-((6,7-dimethoxyquinolin-4-yl)oxy)-3-fluorophenyl)-4-ethoxy-1-(pyridin-3-yl)-1H-pyrazole-3-carboxamide]
4 | < 500 | < 500 | COc1cc2c(Oc3ccc(NC(=O)c4nc(-c5ccccc5)oc4C)cc3F)ccnc2cc1OCC1CCNCC1 [Example 80, N-[3-fluoro-4-[[6-methoxy-7-(4-piperidylmethoxy)-4-quinolyl]oxy]phenyl]-5-methyl-2-phenyl-oxazole-4-carboxamide]
5 | < 500 | < 500 | COc1cc2c(Oc3ccc(NC(=O)c4nn(-c5ccc(F)cc5)cc4OC(C)C)cc3F)ccnc2cc1OCCCN1CCNCC1 [Example 67, N-[3-fluoro-4-[[6-methoxy-7-(3-piperazin-1-ylpropoxy)-4-quinolyl]oxy]phenyl]-1-(4-fluorophenyl)-4-isopropoxy-pyrazole-3-carboxamide]
6 | < 500 | < 500 | COc1cc2c(Oc3ccc(NC(=O)c4nn(-c5ccc(F)cc5)cc4OCc4ccccc4)cc3F)ccnc2cc1OCCCN1CCOCC1 [Example 51, 4-benzyloxy-N-[3-fluoro-4-[[6-methoxy-7-(3-morpholinopropoxy)-4-quinolyl]oxy]phenyl]-1-(4-fluorophenyl)pyrazole-3-carboxamide]
7 | 500 to 5000 | < 500 | CCCn1ccc(C(=O)Nc2ccc(Oc3ccnc4cc(OC)c(OC)cc34)c(F)c2)n1 [Example 13, N-[4-[(6,7-dimethoxy-4-quinolyl)oxy]-3-fluoro-phenyl]-1-propyl-pyrazole-3-carboxamide]
8 | < 500 | < 500 | CCOc1cn(-c2ccc(F)cc2)nc1C(=O)Nc1ccc(Oc2ccnc3cc(OCCCN4CCNCC4)c(OC)cc23)c(F)c1 [Example 65, 4-ethoxy-N-[3-fluoro-4-[[6-methoxy-7-(3-piperazin-1-ylpropoxy)-4-quinolyl]oxy]phenyl]-1-(4-fluorophenyl)pyrazole-3-carboxamide]
9 | < 500 | < 500 | CCOc1cn(-c2ccc(N)cc2)nc1C(=O)Nc1ccc(Oc2ccnc3cc(OC)c(OC)cc23)cn1 [Example 99, 1-(4-aminophenyl)-N-(5-((6,7-dimethoxyquinolin-4-yl)oxy)pyridin-2-yl)-4-ethoxy-1H-pyrazole-3-carboxamide]
10 | < 500 | < 500 | CCOc1cn(-c2ccc(F)c(OC)c2)nc1C(=O)Nc1ccc(Oc2ccnc3cc(OC)c(OC)cc23)c(F)c1 [Example 96, N-(4-((6,7-dimethoxyquinolin-4-yl)oxy)-3-fluorophenyl)-4-ethoxy-1-(4-fluoro-3-methoxyphenyl)-1H-pyrazole-3-carboxamide]
11 | < 500 | < 500 | CCOc1cn(-c2ccc(F)cc2)nc1C(=O)Nc1ccc(Oc2ccnc3cc(OCCCN)c(OC)cc23)c(F)c1 [Example 54, N-[4-[[7-(3-aminopropoxy)-6-methoxy-4-quinolyl]oxy]-3-fluoro-phenyl]-4-ethoxy-1-(4-fluorophenyl)pyrazole-3-carboxamide]
12 | < 500 | < 500 | CCOc1cn(-c2ccc(F)cc2O)nc1C(=O)Nc1ccc(Oc2ccnc3cc(OC)c(OC)cc23)cn1 [Example 104, N-(5-((6,7-dimethoxyquinolin-4-yl)oxy)pyridin-2-yl)-4-ethoxy-1-(4-fluoro-2-hydroxyphenyl)-1H-pyrazole-3-carboxamide]
13 | < 500 | < 500 | CCOc1cn(-c2ccc(F)c(OC)c2)nc1C(=O)Nc1ccc(Oc2ccnc3cc(OC)c(OC)cc23)cn1 [Example 97, N-(5-((6,7-dimethoxyquinolin-4-yl)oxy)pyridin-2-yl)-4-ethoxy-1-(4-fluoro-3-methoxyphenyl)-1H-pyrazole-3-carboxamide]
14 | < 500 | < 500 | COc1cc2c(Oc3ccc(NC(=O)c4nn(-c5ccc(F)cc5)cc4OCc4ccc(F)cc4)cc3F)ccnc2cc1OCC1CCNCC1 [Example 77, N-[3-fluoro-4-[[6-methoxy-7-(4-piperidylmethoxy)-4-quinolyl]oxy]phenyl]-1-(4-fluorophenyl)-4-[(4-fluorophenyl)methoxy]pyrazole-3-carboxamide]
15 | < 500 | < 500 | COc1cc2c(Oc3ccc(NC(=O)c4nn(-c5ccc(F)cc5)cc4OC)cc3F)ccnc2cc1OCCCN1CCN(C)CC1 [Example 59, N-[3-fluoro-4-[[6-methoxy-7-[3-(4-methylpiperazin-1-yl)propoxy]-4-quinolyl]oxy]phenyl]-1-(4-fluorophenyl)-4-methoxy-pyrazole-3-carboxamide]
16 | < 500 | < 500 | COc1cc2c(Oc3ccc(NC(=O)c4nn(-c5ccc(F)cc5)cc4OCC4CC4)cc3F)ccnc2cc1OCC1CCNCC1 [Example 75, 4-(cyclopropylmethoxy)-N-[3-fluoro-4-[[6-methoxy-7-(4-piperidylmethoxy)-4-quinolyl]oxy]phenyl]-1-(4-fluorophenyl)pyrazole-3-carboxamide]
17 | 500 to 5000 | 500 to 5000 | COc1cc2nccc(Oc3ccc(NC(=O)c4ccn(C)n4)cc3F)c2cc1OC [Example 4, N-[4-[(6,7-dimethoxy-4-quinolyl)oxy]-3-fluoro-phenyl]-1-methyl-pyrazole-3-carboxamide]
18 | < 500 | < 500 | CCOc1cn(-c2ccc(F)cc2Cl)nc1C(=O)Nc1ccc(Oc2ccnc3cc(OCCCN4CCOCC4)c(OC)cc23)c(F)c1 [Example 47, 1-(2-chloro-4-fluoro-phenyl)-4-ethoxy-N-[3-fluoro-4-[[6-methoxy-7-(3-morpholinopropoxy)-4-quinolyl]oxy]phenyl]pyrazole-3-carboxamide]
19 | < 500 | < 500 | COCCOc1cn(-c2ccc(F)cc2)nc1C(=O)Nc1ccc(Oc2ccnc3cc(OCCCN4CCOCC4)c(OC)cc23)c(F)c1 [Example 50, N-[3-fluoro-4-[[6-methoxy-7-(3-morpholinopropoxy)-4-quinolyl]oxy]phenyl]-1-(4-fluorophenyl)-4-(2-methoxyethoxy)pyrazole-3-carboxamide]
20 | < 500 | < 500 | CCOc1cn(-c2ccc(OC)cc2C)nc1C(=O)Nc1ccc(Oc2ccnc3cc(OC)c(OC)cc23)c(F)c1 [Example 91, N-(4-((6,7-dimethoxyquinolin-4-yl)oxy)-3-fluorophenyl)-4-ethoxy-1-(4-methoxy-2-methylphenyl)-1H-pyrazole-3-carboxamide]
21 | < 500 | < 500 | COc1cc2c(Oc3ccc(NC(=O)c4csc(-c5ccccc5)n4)cc3F)ccnc2cc1OCCCN1CCOCC1 [Example 38, N-[3-fluoro-4-[[6-methoxy-7-(3-morpholinopropoxy)-4-quinolyl]oxy]phenyl]-2-phenyl-thiazole-4-carboxamide]
22 | < 500 | < 500 | COc1cc2c(Oc3ccc(NC(=O)c4nn(-c5ccc(F)cc5)cc4[N+](=O)[O-])cc3F)ccnc2cc1OCCCN1CCOCC1 [Example 52, N-[3-fluoro-4-[[6-methoxy-7-(3-morpholinopropoxy)-4-quinolyl]oxy]phenyl]-1-(4-fluorophenyl)-4-nitro-pyrazole-3-carboxamide]
23 | < 500 | < 500 | COc1cc2nccc(Oc3ccc(NC(=O)c4nn(-c5ccc(F)cc5)cc4OC(C)C)cc3C)c2cc1OC [Example 29, N-[4-[(6,7-dimethoxy-4-quinolyl)oxy]-3-methyl-phenyl]-1-(4-fluorophenyl)-4-isopropoxy-pyrazole-3-carboxamide]
24 | < 500 | < 500 | CCOc1cn(-c2ccc(F)cc2Cl)nc1C(=O)Nc1ccc(Oc2ccnc3cc(OCCCN4CCN(C)CC4)c(OC)cc23)c(F)c1 [Example 60, 1-(2-chloro-4-fluoro-phenyl)-4-ethoxy-N-[3-fluoro-4-[[6-methoxy-7-[3-(4-methylpiperazin-1-yl)propoxy]-4-quinolyl]oxy]phenyl]pyrazole-3-carboxamide]
25 | < 500 | < 500 | CCOc1oc(-c2ccc(F)cc2)nc1C(=O)Nc1ccc(Oc2ccnc3cc(OCCCN4CCN(C)CC4)c(OC)cc23)c(F)c1 [Example 63, 5-ethoxy-N-[3-fluoro-4-[[6-methoxy-7-[3-(4-methylpiperazin-1-yl)propoxy]-4-quinolyl]oxy]phenyl]-2-(4-fluorophenyl)oxazole-4-carboxamide]
26 | < 500 | < 500 | COc1cc2c(Oc3ccc(NC(=O)c4nn(-c5ccc(F)cc5)cc4OC)cc3F)ccnc2cc1OCCCN1CCNCC1 [Example 66, N-[3-fluoro-4-[[6-methoxy-7-(3-piperazin-1-ylpropoxy)-4-quinolyl]oxy]phenyl]-1-(4-fluorophenyl)-4-methoxy-pyrazole-3-carboxamide]
